Results taken from patent US11464770B2, “Anticancer pharmaceutical composition” (NATIONAL CANCER CENTER, priority 2016, dated 2022).
Read-outs that look alike come from different tables or passages of the source.

Legend:
[1] = test system: blood cancer cell lines (e.g. HL-60, Jurkat, Raji, Ramos, Daudi, MOLT-4); experiment: Cell based assay, cell viability (CellTiter-Glo), blood cancer cell lines; conditions: Homo sapiens
In short: (§1)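 ATP content as viability surrogate, luminescent read; 72 h compound, 0–2 μM final; cells plated 24 h prior.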

[2] = test system: pancreatic cancer cell lines (e.g. MIA PaCa-2); experiment: Cell based assay, cell viability (CellTiter-Glo), pancreatic cancer cell lines; conditions: Homo sapiens
In short: as §1

[3] = test system: RT4: human urinary bladder transitional cell papilloma; experiment: Cell based assay, cytotoxicity in RT4 papilloma cells (selectivity); conditions: Homo sapiens, RT-4; RT4 cells
[4] = MV4-11, blood cancer cell line MV-4-11, 72 hours, read-out: IC50, MV-4-11
[5] = blood cancer cell line Daudi, 72 hours, read-out: IC50, Daudi
[6] = blood cancer cell line HL-60, 72 hours, read-out: IC50, HL-60
[7] = blood cancer cell line Jurkat, 72 hours, read-out: IC50, Jurkat
[8] = blood cancer cell line MOLT-4, 72 hours, read-out: IC50, MOLT-4
[9] = blood cancer cell line Raji, 72 hours, read-out: IC50, Raji
[10] = blood cancer cell line Ramos (RA 1), 72 hours, read-out: IC50, Ramos (RA 1)
[11] = blood cancer cell line U-937, 72 hours, read-out: IC50, U-937
[12] = pancreatic cancer cell line AsPC-1, 72 hours, read-out: IC50, AsPC-1
[13] = pancreatic cancer cell line BxPC-3, 72 hours, read-out: IC50, BxPC-3
[14] = pancreatic cancer cell line CFPAC-1, 72 hours, read-out: IC50, CFPAC-1
[15] = pancreatic cancer cell line Capan-1, 72 hours, read-out: IC50, Capan-1
[16] = pancreatic cancer cell line Capan-2, 72 hours, read-out: IC50, Capan-2
[17] = pancreatic cancer cell line MIA PaCa-2, 72 hours, read-out: IC50, MIA PaCa-2
[18] = pancreatic cancer cell line PANC-1, 72 hours, read-out: IC50, PANC-1

Row | Structure (SMILES) | IC50 [1, 4] [nM] | IC50 [1, 5] [nM] | IC50 [1, 6] [nM] | IC50 [1, 7] [nM] | IC50 [1, 8] [nM] | IC50 [1, 9] [nM] | IC50 [1, 10] [nM] | IC50 [1, 11] [nM] | IC50 [2, 12] [nM] | IC50 [2, 13] [nM] | IC50 [2, 14] [nM] | IC50 [2, 15] [nM] | IC50 [2, 16] [nM] | IC50 [2, 17] [nM] | IC50 [2, 18] [nM] | IC50 [3] [µM]
1 | CC(=O)c1c([S+]([O-])Cc2ccc(C(F)(F)F)cc2)[nH]c2c(Br)ccc(Cl)c2c1=O (stereo not shown) [Compound 70, 3-acetyl-8-bromo-5-chloro-2-((4-(trifluoromethyl)benzyl)sulfinyl)quinolin-4(1H)-one] | 1520 | 1600 | > 2000 | 1090 | 1310 | 1320 | 1900 | > 2000 | > 2000 | > 2000 | > 10000 | > 2000 | > 2000 | 1440 | > 2000 | > 10
2 | CC(=O)c1c([S+]([O-])Cc2ccc(OC(F)(F)F)cc2)[nH]c2c(Br)ccc(Cl)c2c1=O (stereo not shown) [Compound 71, 3-acetyl-8-bromo-5-chloro-2-((4-(trifluoromethoxy)benzyl)sulfinyl)quinolin-4(1H)-one] | > 2000 | > 2000 | > 2000 | 1250 | 1510 | 1650 | > 2000 | > 2000 | > 2000 | > 2000 | > 10000 | > 2000 | > 2000 | 1650 | > 2000 | > 10
3 | CC(=O)c1c([S+]([O-])Cc2ccc(C(F)(F)F)o2)[nH]c2c(Br)ccc(Cl)c2c1=O (stereo not shown) [Compound 72, 3-acetyl-8-bromo-5-chloro-2-(((5-(trifluoromethyl)furan-2-yl)methyl)sulfinyl)quinolin-4(1H)-one] | 1120 | 1600 | 1300 | 780 | 1050 | 940 | 1370 | 970 | 2010 | > 2000 | > 10000 | > 2000 | > 2000 | 1000 | > 2000 | > 10
4 | CC(=O)c1c([S+]([O-])Cc2ccc(C#N)cc2)[nH]c2c(Br)ccc(Cl)c2c1=O (stereo not shown) [Compound 73, 4-(((3-acetyl-8-bromo-5-chloro-4-oxo-1,4-dihydroquinolin-2-yl)sulfinyl)methyl)benzonitrile] | 1310 | > 2000 | 1600 | > 2000 | > 2000 | > 2000 | > 2000 | > 2000 | > 2000 | > 2000 | > 10000 | > 2000 | > 2000 | 1650 | > 2000 | > 10
5 | CC(=O)c1c([S+]([O-])Cc2c(F)cccc2Cl)[nH]c2c(Br)ccc(Cl)c2c1=O (stereo not shown) [Compound 74, 3-acetyl-8-bromo-5-chloro-2-((2-chloro-6-fluorobenzyl)sulfinyl)quinolin-4(1H)-one] | 1340 | > 2000 | 1980 | > 2000 | 1710 | > 2000 | > 2000 | > 2000 | > 2000 | > 2000 | > 10000 | > 2000 | > 2000 | 1180 | > 2000 | > 10
6 | COc1cc(S(F)(F)(F)(F)F)ccc1C[S+]([O-])c1[nH]c2c(Br)ccc(Cl)c2c(=O)c1C(C)=O (stereo not shown) [Compound 75, 3-acetyl-8-bromo-5-chloro-2-((2-methoxy-4-(pentafluoro--sulfanyl)benzyl)sulfinyl)quinolin-4(1H)-one] | > 2000 | 1260 | > 2000 | 1090 | 1280 | 1160 | > 2000 | > 2000 | > 2000 | > 2000 | > 10000 | > 2000 | > 2000 | 1320 | > 2000 | > 10
7 | CC(=O)c1c([S+]([O-])Cc2cc(F)cc(S(F)(F)(F)(F)F)c2)[nH]c2c(Br)ccc(Cl)c2c1=O (stereo not shown) [Compound 76, 3-acetyl-8-bromo-5-chloro-2-((3-fluoro-5-(pentafluoro--sulfanyl)benzyl)sulfinyl)quinolin-4(1H)-one] | > 2000 | 1660 | > 2000 | 1200 | 1620 | 1350 | > 2000 | > 2000 | > 2000 | > 2000 | > 10000 | > 2000 | > 2000 | 1550 | > 2000 | > 10
8 | CC(=O)c1c([S+]([O-])Cc2c(F)c(F)c(F)c(F)c2F)[nH]c2c(Br)ccc(Cl)c2c1=O (stereo not shown) [Compound 78, 3-acetyl-8-bromo-5-chloro-2-(((perfluorophenyl)methyl)sulfinyl)quinolin-4(1H)-one] | > 2000 | > 2000 | > 2000 | > 2000 | > 2000 | > 2000 | 1980 | > 2000 | > 2000 | > 2000 | > 10000 | > 2000 | > 2000 | 1400 | > 2000 | > 10
9 | CC(=O)c1c([S+]([O-])Cc2ccc(I)cc2)[nH]c2c(Cl)ccc(Cl)c2c1=O (stereo not shown) [Compound 83, 3-acetyl-5,8-dichloro-2-((4-iodobenzyl)sulfinyl)quinolin-4(1H)-one] | > 2000 | 1220 | > 2000 | 1310 | 1250 | 1750 | 1170 | > 2000 | > 2000 | > 2000 | > 10000 | > 2000 | > 2000 | 1440 | > 2000 | > 10
10 | CC(=O)c1c([S+]([O-])Cc2cccnc2)[nH]c2c(Br)ccc(Cl)c2c1=O (stereo not shown) [Compound 84, 3-acetyl-8-bromo-5-chloro-2-((pyridin-3-ylmethyl)sulfinyl)quinolin-4(1H)-one] | 820 | 1120 | 1480 | 980 | 970 | 1500 | 1000 | 1480 | 1800 | > 2000 | > 10000 | 1500 | > 2000 | 920 | > 2000 | > 10
